Experimental data as given in patent US10233191B2, “Fused piperidine amides as modulators of ion channels” (Vertex Pharmaceuticals Incorporated, priority 2013, dated 2019).

Each compound was assayed against T1, NaV 1.7 (Homo sapiens, UniProt Q15858) (assay: E-VIPR optical membrane potential assay with electrical stimulation). Conditions: active against one or more sodium channels; assay/subtype not specified in Table 4; read-out: IC50 Binned Activity Data.
T1 construct: expressed in transfected cells; host or cells: HEK cells
T1 sequence (Q15858 whole entry): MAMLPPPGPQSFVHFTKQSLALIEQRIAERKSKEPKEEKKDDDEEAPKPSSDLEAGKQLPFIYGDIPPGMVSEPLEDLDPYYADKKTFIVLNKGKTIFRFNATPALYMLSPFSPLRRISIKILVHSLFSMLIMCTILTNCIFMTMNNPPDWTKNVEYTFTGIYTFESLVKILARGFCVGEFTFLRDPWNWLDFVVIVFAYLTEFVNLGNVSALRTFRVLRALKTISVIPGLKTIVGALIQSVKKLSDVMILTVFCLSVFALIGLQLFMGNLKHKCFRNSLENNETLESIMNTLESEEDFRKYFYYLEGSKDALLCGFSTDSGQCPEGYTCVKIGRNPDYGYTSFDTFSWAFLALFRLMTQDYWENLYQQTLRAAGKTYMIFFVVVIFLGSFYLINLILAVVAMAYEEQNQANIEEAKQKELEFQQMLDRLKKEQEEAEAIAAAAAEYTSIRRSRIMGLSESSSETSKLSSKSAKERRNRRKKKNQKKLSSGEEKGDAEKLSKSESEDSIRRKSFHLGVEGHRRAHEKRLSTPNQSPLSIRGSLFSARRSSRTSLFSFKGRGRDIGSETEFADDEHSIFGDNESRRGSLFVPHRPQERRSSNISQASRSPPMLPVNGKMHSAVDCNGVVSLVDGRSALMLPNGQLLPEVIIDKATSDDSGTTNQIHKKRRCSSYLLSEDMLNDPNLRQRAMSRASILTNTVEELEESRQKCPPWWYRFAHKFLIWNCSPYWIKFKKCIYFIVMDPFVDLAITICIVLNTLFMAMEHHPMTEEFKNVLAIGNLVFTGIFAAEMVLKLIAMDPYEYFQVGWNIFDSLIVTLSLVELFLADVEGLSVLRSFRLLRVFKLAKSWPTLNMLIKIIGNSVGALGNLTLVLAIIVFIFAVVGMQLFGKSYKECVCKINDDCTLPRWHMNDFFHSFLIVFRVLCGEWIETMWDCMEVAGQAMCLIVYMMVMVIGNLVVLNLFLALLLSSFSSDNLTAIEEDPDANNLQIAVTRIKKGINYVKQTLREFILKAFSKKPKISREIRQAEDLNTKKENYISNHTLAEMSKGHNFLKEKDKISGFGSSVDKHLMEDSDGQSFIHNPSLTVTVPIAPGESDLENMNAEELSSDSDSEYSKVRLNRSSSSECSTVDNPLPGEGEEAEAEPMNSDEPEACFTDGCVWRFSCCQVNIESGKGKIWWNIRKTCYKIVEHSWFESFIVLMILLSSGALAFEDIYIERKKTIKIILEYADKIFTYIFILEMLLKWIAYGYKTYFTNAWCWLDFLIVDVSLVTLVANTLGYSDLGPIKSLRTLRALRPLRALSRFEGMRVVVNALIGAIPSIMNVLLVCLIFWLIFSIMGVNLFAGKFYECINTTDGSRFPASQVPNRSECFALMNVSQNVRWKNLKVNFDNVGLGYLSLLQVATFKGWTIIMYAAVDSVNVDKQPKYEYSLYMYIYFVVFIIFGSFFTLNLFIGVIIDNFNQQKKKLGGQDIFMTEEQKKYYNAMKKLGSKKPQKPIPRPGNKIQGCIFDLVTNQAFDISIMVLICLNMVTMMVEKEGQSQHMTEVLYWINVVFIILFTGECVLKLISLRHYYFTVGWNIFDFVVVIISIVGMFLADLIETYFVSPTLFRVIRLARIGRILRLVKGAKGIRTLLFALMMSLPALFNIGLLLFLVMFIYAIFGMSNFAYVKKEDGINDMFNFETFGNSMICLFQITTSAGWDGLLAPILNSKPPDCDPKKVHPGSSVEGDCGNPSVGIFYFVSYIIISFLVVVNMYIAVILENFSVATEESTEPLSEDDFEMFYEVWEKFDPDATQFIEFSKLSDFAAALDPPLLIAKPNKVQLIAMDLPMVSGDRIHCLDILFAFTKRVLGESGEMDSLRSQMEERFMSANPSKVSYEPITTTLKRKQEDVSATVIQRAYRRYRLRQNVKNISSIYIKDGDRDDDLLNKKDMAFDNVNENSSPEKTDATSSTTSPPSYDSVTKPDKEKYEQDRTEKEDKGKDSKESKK
Assay type: cell-based
From the text: E-VIPR Optical Membrane Potential Assay Method with Electrical Stimulation
Sodium channels are voltage-dependent proteins that can be activated by inducing membrane voltage changes by applying electric fields. The electrical stimulation instrument and methods of use are described in Ion Channel Assay Methods PCT/US01/21652, herein incorporated by reference and are referred to as E-VIPR. The instrument comprises a microtiter plate handler, an optical system for exciting the coumarin dye while simultaneously recording the coumarin and oxonol emissions, a waveform generator, a current- or voltage-controlled amplifier, and a device for inserting electrodes in well. Under integrated computer control, this instrument passes user-programmed electrical stimulus protocols to cells within the wells of the microtiter plate.
24 hours before the assay on E-VIPR, HEK cells expressing human NaV subtype, like NaV 1.7, are seeded in 384-well poly-lysine coated plates at 15,000-20,000 cells per well. Other subtypes are performed in an analogous mode in a cell line expressing the NaV of interest. HEK cells are grown in media (exact composition is specific to each cell type and NaV subtype) supplemented with 10% FBS (Fetal Bovine Serum, qualified; GibcoBRL #16140-071) and 1% Pen-Strep (Penicillin-Streptomycin; GibcoBRL #15140-122). Cells are grown in vented cap flasks, in 90% humidity and 10% CO2, to 100% confluence. They are usually split by trypsinization 1:10 or 1:20, depending on scheduling needs, and grown for 2-3 days before the next split.
• 100 mg/mL Pluronic F-127 (Sigma #P2443), in dry DMSO • Compound Plates: 384-well round bottom plate, e.g. Corning 384-well Polypropylene Round Bottom #3656 • Cell Plates: 384-well tissue culture treated plate, e.g. Greiner #781091-1B • 10 mM DiSBAC6(3) (Aurora #00-100-010) in dry DMSO • 10 mM CC2-DMPE (Aurora #00-100-008) in dry DMSO • 200 mM ABSC1 in H2O
Bath1 buffer. Glucose 10 mM (1.8 g/L), Magnesium Chloride (Anhydrous), 1 mM (0.095 g/L), Calcium Chloride, 2 mM (0.222 g/L), HEPES 10 mM (2.38 g/L), Potassium Chloride, 4.5 mM (0.335 g/L), Sodium Chloride 160 mM (9.35 g/L).
Hexyl Dye Solution: Bath1 Buffer+0.5% β-cyclodextrin (make this prior to use, Sigma #C4767), 8 μM CC2-DMPE+2.5 μM DiSBAC6(3). To make the solution Add volume of 10% Pluronic F127 stock equal to volumes of CC2-DMPE+DiSBAC6(3). The order of preparation is first mix Pluronic and CC2-DMPE, then add DiSBAC6(3) while vortexing, then add Bath1+β-Cyclodextrin.
1) Pre-spot compounds (in neat DMSO) into compound plates. Vehicle control (neat DMSO), the positive control (20 mM DMSO stock tetracaine, 125 μM final in assay) and test compounds are added to each well at 160× desired final concentration in neat DMSO. Final compound plate volume will be 80 μL (80-fold intermediate dilution from 1 μL DMSO spot; 160-fold final dilution after transfer to cell plate). Final DMSO concentration for all wells in assay is 0.625%.
2) Prepare Hexyl Dye Solution.
3) Prepare cell plates. On the day of the assay, medium is aspirated and cells are washed three times with 100 μL of Bath1 Solution, maintaining 25 μL residual volume in each well.
4) Dispense 25 μL per well of Hexyl Dye Solution into cell plates. Incubate for 20-35 minutes at room temp or ambient conditions.
5) Dispense 80 μL per well of Bath1 into compound plates. Acid Yellow-17 (1 mM) is added and Potassium Chloride can be altered from 4.5 to 20 mM depending on the NaV subtype and assay sensitivity.
6) Wash cell plates three times with 100 μL per well of Bath1, leaving 25 μL of residual volume. Then transfer 25 uL per well from Compound Plates to Cell Plates. Incubate for 20-35 minutes at room temp/ambient condition
7) Read Plate on E-VIPR. Use the current-controlled amplifier to deliver stimulation wave pulses for typically 9 seconds and a scan rate of 400 Hz. A pre-stimulus recording is performed for 0.5 seconds to obtain the un-stimulated intensities baseline. […]

| SMILES | IC50 [µM] |
| --- | --- |
| COc1nc(C(=O)N2CC[C@]3(c4csc(C)n4)OCOC3C2)ccc1OCCOC(F)(F)F (some centres unmarked) [Compound 88] | ≤ 2 |
| COc1cccnc1[C@]12CCN(C(=O)c3ccc(OCCOC(F)(F)F)c(C)c3)CC1OCO2 (some centres unmarked) [Compound 89] | ≤ 2 |
| COc1cc(C(=O)N2CC[C@]3(c4ccccn4)OCOC3C2)ccc1OCC1CC(F)(F)C1 (some centres unmarked) [Compound 90] | ≤ 2 |
| COc1cc(C(=O)N2CC[C@]3(c4ccccc4)OCOC3C2)ccc1C(C)(C)CO (some centres unmarked) [Compound 91] | ≤ 2 |
| COc1cc(C(=O)N2CC[C@]3(c4ccccn4)OCOC3C2)ccc1OCCOC(F)(F)F (some centres unmarked) [Compound 92] | ≤ 2 |
| COc1cc(C(=O)N2CC[C@]3(c4ncccc4F)OCOC3C2)ccc1OCCOC(F)(F)F (some centres unmarked) [Compound 93] | ≤ 2 |
| COc1cccnc1[C@]12CCN(C(=O)c3ccc(OCCOC(F)(F)F)c(Cl)c3)CC1OCO2 (some centres unmarked) [Compound 94] | ≤ 2 |
| Cc1cc(C(=O)N2CC[C@]3(c4ccccn4)OCOC3C2)ccc1OCC(C)(C)F (some centres unmarked) [Compound 95] | ≤ 2 |
| COc1nc(C(=O)N2CC[C@]3(c4ncccc4F)OCOC3C2)ccc1OCCOC(F)(F)F (some centres unmarked) [Compound 96] | ≤ 2 |
| Cc1cc(C(=O)N2CC[C@]3(c4nccs4)OCOC3C2)ccc1OCC(C)(C)F (some centres unmarked) [Compound 97] | ≤ 2 |
| COc1cc(OC(C)C)ccc1C(=O)N1CCC2(c3ccccc3)CC2C1 (centres unmarked) [Compound 98] | ≤ 2 |
| COc1cc(C(=O)N2CC[C@]3(c4ccc(F)cc4)OCOC3C2)ccc1OCCOC(F)(F)F (some centres unmarked) [Compound 99] | ≤ 2 |
| Cc1cc(C(=O)N2CC[C@]3(c4ncccc4F)OCOC3C2)ccc1OCC(C)(C)F (some centres unmarked) [Compound 100] | ≤ 2 |
| COc1cc(C(=O)N2CC[C@]3(c4ccccn4)CC3C2)ccc1OCCOC(F)(F)F (some centres unmarked) [Compound 101] | ≤ 2 |
| COc1cc(C(=O)N2CC[C@]3(c4ccccc4)OCOC3C2)ccc1OCCC(F)(F)F (some centres unmarked) [Compound 102] | ≤ 2 |
| CCOc1nc(C(=O)N2CC[C@]3(c4csc(C)n4)OCOC3C2)ccc1OCCOC(F)(F)F (some centres unmarked) [Compound 103] | ≤ 2 |
| COc1cc(C(=O)N2CC[C@]3(c4ccccc4)CC3C2)ccc1OCC(C)(C)O (some centres unmarked) [Compound 104] | ≤ 2 |
| COc1cc(C(=O)N2CC[C@]3(c4ccccn4)OCOC3C2)cc(Cl)c1OCCOC(F)(F)F (some centres unmarked) [Compound 105] | ≤ 2 |
| CC(F)(F)COc1ccc(C(=O)N2CC[C@]3(c4ccccn4)OCOC3C2)cc1Cl (some centres unmarked) [Compound 106] | ≤ 2 |
| COc1nc(C(=O)N2CC[C@]3(c4ccccn4)OCOC3C2)ccc1OCCOC(F)(F)F (some centres unmarked) [Compound 107] | ≤ 2 |
| O=C(c1ccc(OCCOCC(F)(F)F)c(Cl)c1)N1CC[C@]2(c3ccccn3)OCOC2C1 (some centres unmarked) [Compound 108] | ≤ 2 |
| Cc1cc(C(=O)N2CC[C@@]3(c4ccc(F)cc4)OCOC3C2)ccc1OCC(C)(C)F (some centres unmarked) [Compound 109] | ≤ 2 |
| CC(C)(F)COc1ccc(C(=O)N2CC[C@]3(c4ccccn4)OCOC3C2)cc1Cl (some centres unmarked) [Compound 110] | ≤ 2 |
| COc1nc(C(=O)N2CC[C@]3(c4nccs4)OCOC3C2)ccc1OCCOC(F)(F)F (some centres unmarked) [Compound 111] | ≤ 2 |
| COc1ccnc(C23CCN(C(=O)c4ccc(OCCOC(F)(F)F)c(OC)c4)CC2OCO3)c1 (centres unmarked) [Compound 112] | ≤ 2 |
| Cc1cc(C(=O)N2CCC3(c4ccccc4)CC3C2)ccc1C(C)(C)O (centres unmarked) [Compound 113] | ≤ 2 |
| Cc1cc(C(=O)N2CC[C@@]3(c4ccccc4)C[C@@H]3C2)ccc1OCC(C)(C)O [Compound 114] | ≤ 2 |

| SMILES | IC50 [µM] |
| --- | --- |
| COc1cc(C(=O)N2CCC3(c4ccccc4)CC3C2)ccc1C(C)(C)CO (centres unmarked) [Compound 115] | ≤ 2 |
| O=C(c1ccc(OCCOC(F)(F)F)c(Cl)c1)N1CC[C@@]2(c3ccccn3)COC2C1 (some centres unmarked) [Compound 116] | ≤ 2 |
| COc1cc(C(=O)N2CC[C@]3(c4ccccc4)OCOC3C2)ccc1OC(C)C(F)(F)F (some centres unmarked) [Compound 117] | ≤ 2 |
| CCOc1nc(C(=O)N2CC[C@]3(c4nccs4)OCOC3C2)ccc1OCCOC(F)(F)F (some centres unmarked) [Compound 118] | ≤ 2 |
| O=C(c1cc2n(n1)C(C(F)(F)F)CC(C1CC1)N2)N1CCC2(c3ccccc3)CC2C1 (centres unmarked) [Compound 119] | ≤ 2 |
| Cc1cc(C(=O)N2CC[C@@]3(c4ccccc4)OCOC3C2)ccc1OCC(C)(C)F (some centres unmarked) [Compound 120] | ≤ 2 |
| CC(C)(C)COc1ccc(C(=O)N2CC[C@]3(c4ccccn4)OCOC3C2)cc1Cl (some centres unmarked) [Compound 121] | ≤ 2 |
| COc1cc(C(=O)N2CC[C@@]3(c4ccc(F)cc4)OCOC3C2)ccc1OCCOC(F)(F)F (some centres unmarked) [Compound 122] | ≤ 2 |
| O=C(c1ccc(OCC(F)(F)C(F)F)c(C(F)(F)F)c1)N1CC[C@]2(c3ccccn3)OCOC2C1 (some centres unmarked) [Compound 123] | ≤ 2 |
| Cc1cc(C(=O)N2CC[C@]3(c4ccc(F)cc4)OCOC3C2)ccc1OCC(C)(C)F (some centres unmarked) [Compound 124] | ≤ 2 |
| COc1nc(C(=O)N2CCC3(c4ccccc4)CC3C2)ccc1OCC(C)(C)F (centres unmarked) [Compound 125] | ≤ 2 |
| COc1nc(C(=O)N2CC[C@@]3(c4nccs4)OCOC3C2)ccc1OCCOC(F)(F)F (some centres unmarked) [Compound 126] | ≤ 2 |
| CC(C)(F)COc1ccc(C(=O)N2CC[C@]3(c4ccccn4)OCO[C@@H]3C2)cc1C(F)(F)F [Compound 127] | ≤ 2 |
| O=C(c1ccc(OCCC(F)(F)F)c(C(F)(F)F)c1)N1CC[C@]2(c3ccccn3)OCOC2C1 (some centres unmarked) [Compound 128] | ≤ 2 |
| Cc1cc(C(=O)N2CC[C@]3(c4ncccc4F)OCOC3C2)ccc1OCCOC(F)(F)F (some centres unmarked) [Compound 129] | ≤ 2 |
| COc1nc(C(=O)N2CC[C@]3(c4ccccn4)OCOC3C2)ccc1OCC1(C(F)(F)F)CC1 (some centres unmarked) [Compound 130] | ≤ 2 |
| COc1cc(C(=O)N2CC[C@]3(c4cccc(Cl)c4)OCOC3C2)ccc1OCCC(F)(F)F (some centres unmarked) [Compound 131] | ≤ 2 |
| COc1cc(C(=O)N2CC[C@]3(c4ccccc4)OCCOC3C2)ccc1OCCOC(F)(F)F (some centres unmarked) [Compound 132] | ≤ 2 |
| Cc1cc(C(=O)N2CC[C@]3(c4ccccc4)C[C@@H]3C2)ccc1OCC(C)(C)O [Compound 133] | ≤ 2 |
| Cc1nc(C(=O)N2CCC3(c4ccccc4)CC3C2)ccc1OC(C)C (centres unmarked) [Compound 134] | ≤ 2 |
| O=C(c1ccc(OCC2CC2(F)F)c(Cl)c1)N1CC[C@]2(c3ccccn3)OCOC2C1 (some centres unmarked) [Compound 135] | ≤ 2 |
| COc1cc(C(=O)N2CCC3(c4ccccc4)CC3C2)ccc1COCCC(F)(F)F (centres unmarked) [Compound 136] | ≤ 2 |
| CCOc1nc(C(=O)N2CC[C@@]3(c4nccs4)OCOC3C2)ccc1OCCOC(F)(F)F (some centres unmarked) [Compound 137] | ≤ 2 |
| O=C(c1ccc(OCCOC(F)(F)F)c(Cl)c1)N1CC[C@@]2(c3nccs3)OCOC2C1 (some centres unmarked) [Compound 138] | ≤ 2 |
| COc1cc(C(=O)N2CC[C@]3(c4ccccc4)OCOC3C2)ccc1OCC1CC(F)(F)C1 (some centres unmarked) [Compound 139] | ≤ 2 |
| O=C(c1ccc(OCCOC(F)(F)F)c(Cl)c1)N1CC[C@]2(c3nccs3)OCOC2C1 (some centres unmarked) [Compound 140] | ≤ 2 |
